According to PubChem BioAssay (NCI):
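A five-concentration, 48-hour dose response in 96-well plates underlies each endpoint, interpolated linearly between surrounding concentrations. Here, GI50 denotes the concentration required for 50% inhibition of growth. TGI marks complete inhibition of growth.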

What was measured:
Assay in all cases: NCI tumour cell line growth inhibition, 48 h
U251 CNS = tested on: U251 CNS
MCF7 breast = tested on: MCF7 breast
OVCAR-8 ovarian = tested on: OVCAR-8 ovarian
NCI-H226 lung = tested on: NCI-H226 lung
EKVX NSCLC = tested on: EKVX NSCLC
UACC-257 melanoma = tested on: UACC-257 melanoma
HOP-62 NSCLC = tested on: HOP-62 NSCLC
KM12 colon = tested on: KM12 colon
OVCAR-3 ovarian = tested on: OVCAR-3 ovarian
BT-549 breast = tested on: BT-549 breast
UO-31 renal = tested on: UO-31 renal
HL-60(TB) leukemia = tested on: HL-60(TB) leukemia
IGROV1 ovarian = tested on: IGROV1 ovarian
SW-620 colon = tested on: SW-620 colon
SK-OV-3 ovarian = tested on: SK-OV-3 ovarian
K-562 leukemia = tested on: K-562 leukemia
HCT-116 colon = tested on: HCT-116 colon
SN12C renal = tested on: SN12C renal
SF-268 CNS = tested on: SF-268 CNS
NCI/ADR-RES ovarian = tested on: NCI/ADR-RES ovarian
T-47D breast = tested on: T-47D breast
NCI-H460 lung = tested on: NCI-H460 lung
TK-10 renal = tested on: TK-10 renal
ACHN renal = tested on: ACHN renal
MDA-MB-435 = tested on: MDA-MB-435
SR leukemia = tested on: SR leukemia
SK-MEL-28 melanoma = tested on: SK-MEL-28 melanoma
OVCAR-5 ovarian = tested on: OVCAR-5 ovarian
A498 renal = tested on: A498 renal
SF-295 CNS = tested on: SF-295 CNS
SNB-75 CNS = tested on: SNB-75 CNS
COLO 205 colon = tested on: COLO 205 colon
UACC-62 melanoma = tested on: UACC-62 melanoma
HS 578T breast = tested on: HS 578T breast
HCT-15 colon = tested on: HCT-15 colon
RPMI-8226 leukemia = tested on: RPMI-8226 leukemia
HCC-2998 colon = tested on: HCC-2998 colon
NCI-H522 lung = tested on: NCI-H522 lung
OVCAR-4 ovarian = tested on: OVCAR-4 ovarian
SK-MEL-5 melanoma = tested on: SK-MEL-5 melanoma
SNB-19 CNS = tested on: SNB-19 CNS
MDA-MB-231 breast = tested on: MDA-MB-231 breast
PC-3 prostate = tested on: PC-3 prostate
HOP-92 NSCLC = tested on: HOP-92 NSCLC
786-0 renal = tested on: 786-0 renal
MOLT-4 leukemia = tested on: MOLT-4 leukemia
CAKI-1 renal = tested on: CAKI-1 renal
A549 NSCLC = tested on: A549 NSCLC
DU-145 prostate = tested on: DU-145 prostate
M14 melanoma = tested on: M14 melanoma
HT29 colon = tested on: HT29 colon
CCRF-CEM leukemia = tested on: CCRF-CEM leukemia
SK-MEL-2 melanoma = tested on: SK-MEL-2 melanoma
LOX IMVI melanoma = tested on: LOX IMVI melanoma
NCI-H23 lung = tested on: NCI-H23 lung
RXF 393 renal = tested on: RXF 393 renal
MALME-3M melanoma = tested on: MALME-3M melanoma

In the case of `CCNCCNc1cc(C2CCCCC2)c(C#N)c2nc3ccccc3n12`, the GI50 (U251 CNS) is reported as 1480 nM, the TGI (U251 CNS) is reported as 3420 nM and the GI50 (MCF7 breast) is reported as 1530 nM. The TGI (MCF7 breast) was 3270 nM, the GI50 (OVCAR-8 ovarian) was 2930 nM and the TGI (OVCAR-8 ovarian) was 7990 nM. The GI50 (NCI-H226 lung) was 1710 nM, the TGI (NCI-H226 lung) was 3320 nM and the GI50 (EKVX NSCLC) was 2180 nM. It also gave a TGI (EKVX NSCLC) of 6840 nM, a GI50 (UACC-257 melanoma) of 2340 nM and a TGI (UACC-257 melanoma) of 4380 nM. For the same molecule, the GI50 (HOP-62 NSCLC) was 2280 nM, the TGI (HOP-62 NSCLC) was 6930 nM and the GI50 (KM12 colon) was 2760 nM. For the same molecule, the TGI (KM12 colon) was 8480 nM, the GI50 (OVCAR-3 ovarian) was 1700 nM and the TGI (OVCAR-3 ovarian) was 3290 nM. For the same molecule, the GI50 (BT-549 breast) was 1770 nM, the TGI (BT-549 breast) was 3640 nM and the GI50 (UO-31 renal) was 1660 nM. The TGI (UO-31 renal) was 3360 nM, the GI50 (HL-60(TB) leukemia) was 1460 nM and the TGI (HL-60(TB) leukemia) was 3490 nM. For the same molecule, the GI50 (IGROV1 ovarian) was 2380 nM, the TGI (IGROV1 ovarian) was 7040 nM and the GI50 (SW-620 colon) was 1440 nM. For the same molecule, the TGI (SW-620 colon) was 3150 nM, the GI50 (SK-OV-3 ovarian) was 1810 nM and the TGI (SK-OV-3 ovarian) was 3480 nM. For the same molecule, the GI50 (K-562 leukemia) was 1350 nM, the TGI (K-562 leukemia) was 4390 nM and the GI50 (HCT-116 colon) was 1370 nM. The TGI (HCT-116 colon) was 2720 nM, the GI50 (SN12C renal) was 1930 nM and the TGI (SN12C renal) was 4020 nM. The GI50 (SF-268 CNS) was 1900 nM, the TGI (SF-268 CNS) was 4380 nM and the GI50 (NCI/ADR-RES ovarian) was 2350 nM. It also gave a TGI (NCI/ADR-RES ovarian) of 6820 nM, a GI50 (T-47D breast) of 1580 nM and a TGI (T-47D breast) of 3420 nM. It also gave a GI50 (NCI-H460 lung) of 1780 nM, a TGI (NCI-H460 lung) of 3280 nM and a GI50 (TK-10 renal) of 2410 nM. The TGI (TK-10 renal) was 6120 nM, the GI50 (ACHN renal) was 1790 nM and the TGI (ACHN renal) was 3860 nM. The GI50 (MDA-MB-435) was 1730 nM, the TGI (MDA-MB-435) was 3400 nM and the GI50 (SR leukemia) was 288 nM. The TGI (SR leukemia) was 1040 nM, the GI50 (SK-MEL-28 melanoma) was 1700 nM and the TGI (SK-MEL-28 melanoma) was 3360 nM. The GI50 (OVCAR-5 ovarian) was 2570 nM, the TGI (OVCAR-5 ovarian) was 6560 nM and the GI50 (A498 renal) was 1560 nM. It also gave a TGI (A498 renal) of 2950 nM, a GI50 (SF-295 CNS) of 1800 nM and a TGI (SF-295 CNS) of 3360 nM. The GI50 (SNB-75 CNS) was 1520 nM, the TGI (SNB-75 CNS) was 3400 nM and the GI50 (COLO 205 colon) was 1580 nM. For the same molecule, the TGI (COLO 205 colon) was 3410 nM, the GI50 (UACC-62 melanoma) was 1900 nM and the TGI (UACC-62 melanoma) was 3750 nM. It also gave a GI50 (HS 578T breast) of 2400 nM, a TGI (HS 578T breast) of 5420 nM and a GI50 (HCT-15 colon) of 1690 nM. The TGI (HCT-15 colon) was 3460 nM, the GI50 (RPMI-8226 leukemia) was 2110 nM and the TGI (RPMI-8226 leukemia) was 5020 nM. It also gave a GI50 (HCC-2998 colon) of 2530 nM, a TGI (HCC-2998 colon) of 6790 nM and a GI50 (NCI-H522 lung) of 2050 nM. It also gave a TGI (NCI-H522 lung) of 4400 nM, a GI50 (OVCAR-4 ovarian) of 2100 nM and a TGI (OVCAR-4 ovarian) of 6420 nM. It also gave a GI50 (SK-MEL-5 melanoma) of 1710 nM, a TGI (SK-MEL-5 melanoma) of 3100 nM and a GI50 (SNB-19 CNS) of 4900 nM. It also gave a TGI (SNB-19 CNS) of 18400 nM, a GI50 (MDA-MB-231 breast) of 1950 nM and a TGI (MDA-MB-231 breast) of 3620 nM. For the same molecule, the GI50 (PC-3 prostate) was 4810 nM, the TGI (PC-3 prostate) was 16000 nM and the GI50 (HOP-92 NSCLC) was 2280 nM. The TGI (HOP-92 NSCLC) was 4080 nM, the GI50 (786-0 renal) was 1570 nM and the TGI (786-0 renal) was 3040 nM. It also gave a GI50 (MOLT-4 leukemia) of 2040 nM, a TGI (MOLT-4 leukemia) of 4970 nM and a GI50 (CAKI-1 renal) of 1820 nM. It also gave a TGI (CAKI-1 renal) of 3910 nM, a GI50 (A549 NSCLC) of 2190 nM and a TGI (A549 NSCLC) of 4760 nM. The GI50 (DU-145 prostate) was 2370 nM, the TGI (DU-145 prostate) was 5790 nM and the GI50 (M14 melanoma) was 1930 nM. For the same molecule, the TGI (M14 melanoma) was 3670 nM, the GI50 (HT29 colon) was 1730 nM and the TGI (HT29 colon) was 3820 nM. The GI50 (CCRF-CEM leukemia) was 1300 nM, the TGI (CCRF-CEM leukemia) was 3280 nM and the GI50 (SK-MEL-2 melanoma) was 2290 nM. The TGI (SK-MEL-2 melanoma) was 4710 nM, the GI50 (LOX IMVI melanoma) was 568 nM and the TGI (LOX IMVI melanoma) was 2080 nM. The GI50 (NCI-H23 lung) was 2060 nM, the TGI (NCI-H23 lung) was 5540 nM and the GI50 (RXF 393 renal) was 1700 nM. For the same molecule, the TGI (RXF 393 renal) was 3190 nM, the GI50 (MALME-3M melanoma) was 1800 nM and the TGI (MALME-3M melanoma) was 3480 nM.
